Reference: patent publication US10167262B2, “Herbicidal substituted 3-arylpyrazoles” (FMC CORPORATION, priority 2014, dated 2019)

What was measured:
Format in all cases: in vivo
[1] = tested on: barnyardgrass (Echinochloa crus-galli); experiment: Test C pre-/postemergence greenhouse test, plant response rating 0-100; details: Preemergence
Method in brief: (§1)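 Plants were scored visually against controls 13–15 days after treatment on a 0–100 scale, 100 meaning complete control. Test chemicals, formulated in surfactant-containing non-phytotoxic solvent, went preemergence onto seeds in loam–sand blend or postemergence onto 1- to 4-leaf plants (2–18 cm) grown in peat-based mix.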

[2] = tested on: oilseed rape (Brassica napus); experiment: as above; details: Preemergence
Method in brief: as §1

[3] = tested on: waterhemp (common waterhemp, Amaranthus rudis); experiment: as above; details: Preemergence
Method in brief: as §1

[4] = tested on: bermudagrass (Cynodon dactylon); experiment: Test C postemergence greenhouse test, plant response rating 0-100
Method in brief: (§2)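 First, plants were raised in a sphagnum peat, vermiculite and nutrient medium to 1–4 leaves. Next, formulated test compounds were applied over the foliage. Finally, after 13–15 greenhouse days, injury was compared with controls and scored 0–100.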

[5] = tested on: canarygrass (Phalaris minor); experiment: as above
Method in brief: as §2

[6] = tested on: cocklebur (common cocklebur, Xanthium strumarium); experiment: as above
Method in brief: as §2

[7] = tested on: deadnettle (henbit deadnettle, Lamium amplexicaule); experiment: as above
Method in brief: as §2

[8] = tested on: downy bromegrass (Bromus tectorum); experiment: as above
Method in brief: as §2

[9] = tested on: goosegrass (Eleusine indica); experiment: as above
Method in brief: as §2

[10] = tested on: green foxtail (Setaria viridis); experiment: as above
Method in brief: as §2

[11] = tested on: surinam grass (Brachiaria decumbens); experiment: as above
Method in brief: as §2

[12] = tested on: windgrass (Apera spica-venti); experiment: as above
Method in brief: as §2

[13] = tested on: winter barley (Hordeum vulgare); experiment: as above
Method in brief: as §2

[14] = tested on: woolly cupgrass (Eriochloa villosa); experiment: as above
Method in brief: as §2

[15] = tested on: waterhemp_RES2, (ALS & HPPD resistant common waterhemp, Amaranthus rudis); experiment: Test E postemergence greenhouse test, plant response rating 0-100; details: scale 0 to 100
Method in brief: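 Visual ratings, 0 (no effect) to 100 (complete control), made versus controls 14–21 days after postemergence application in the greenhouse. Plants were at 1- to 4-leaf stage (2–18 cm) in peat moss/vermiculite potting medium.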

Cn1cc(C(=O)c2ccccc2)c(-c2cc(Cl)cc(Cl)c2)n1 [Compound 54, [3-(3,5-dichlorophenyl)-1-methyl-1H-pyrazol-4-yl]phenylmethanone]
Plant response rating, Barnyardgrass ([1]; 62 g ai/ha): 0 | Plant response rating, Barnyardgrass ([1]; 125 g ai/ha): 0 | Plant response rating, Barnyardgrass ([1]; 250 g ai/ha): 0 | Plant response rating, Barnyardgrass ([1]; 500 g ai/ha): 0 | Plant response rating, Oilseed Rape ([2]; 62 g ai/ha): 0 | Plant response rating, Oilseed Rape ([2]; 125 g ai/ha): 0 | Plant response rating, Oilseed Rape ([2]; 250 g ai/ha): 0 | Plant response rating, Oilseed Rape ([2]; 500 g ai/ha): 5 | Plant response rating, Waterhemp ([3]; 62 g ai/ha): 90 | Plant response rating, Waterhemp ([3]; 125 g ai/ha): 95 | Plant response rating, Waterhemp ([3]; 250 g ai/ha): 98 | Plant response rating, Waterhemp ([3]; 500 g ai/ha): 100 | Plant response rating (0 to 100), Bermudagrass ([4]; 31 g ai/ha): 0 | Plant response rating (0 to 100), Bermudagrass ([4]; 62 g ai/ha): 0 | Plant response rating (0 to 100), Bermudagrass ([4]; 125 g ai/ha): 0 | Plant response rating, Bermudagrass ([4]; 250 g ai/ha, scale 0 to 100): 0 | Plant response rating (0 to 100), Canarygrass ([5]; 31 g ai/ha): 0 | Plant response rating (0 to 100), Canarygrass ([5]; 62 g ai/ha): 0 | Plant response rating (0 to 100), Canarygrass ([5]; 125 g ai/ha): 0 | Plant response rating, Canarygrass ([5]; 250 g ai/ha, scale 0 to 100): 0 | Plant response rating (0 to 100), Cocklebur ([6]; 31 g ai/ha): 0 | Plant response rating (0 to 100), Cocklebur ([6]; 62 g ai/ha): 0 | Plant response rating (0 to 100), Cocklebur ([6]; 125 g ai/ha): 0 | Plant response rating, Cocklebur ([6]; 250 g ai/ha, scale 0 to 100): 0 | Plant response rating (0 to 100), Deadnettle ([7]; 31 g ai/ha): 0 | Plant response rating (0 to 100), Deadnettle ([7]; 62 g ai/ha): 0 | Plant response rating (0 to 100), Deadnettle ([7]; 125 g ai/ha): 0 | Plant response rating, Deadnettle ([7]; 250 g ai/ha, scale 0 to 100): 5 | Plant response rating (0 to 100), Bromegrass, Downy ([8]; 31 g ai/ha): 0 | Plant response rating (0 to 100), Bromegrass, Downy ([8]; 62 g ai/ha): 0 | Plant response rating (0 to 100), Bromegrass, Downy ([8]; 125 g ai/ha): 0 | Plant response rating, Bromegrass, Downy ([8]; 250 g ai/ha, scale 0 to 100): 0 | Plant response rating (0 to 100), Goosegrass ([9]; 31 g ai/ha): 0 | Plant response rating (0 to 100), Goosegrass ([9]; 62 g ai/ha): 0 | Plant response rating (0 to 100), Goosegrass ([9]; 125 g ai/ha): 0 | Plant response rating, Goosegrass ([9]; 250 g ai/ha, scale 0 to 100): 0 | Plant response rating (0 to 100), Foxtail, Green ([10]; 31 g ai/ha): 0 | Plant response rating (0 to 100), Foxtail, Green ([10]; 62 g ai/ha): 0 | Plant response rating (0 to 100), Foxtail, Green ([10]; 125 g ai/ha): 0 | Plant response rating, Foxtail, Green ([10]; 250 g ai/ha, scale 0 to 100): 0 | Plant response rating (0 to 100), Surinam Grass ([11]; 62 g ai/ha): 0 | Plant response rating (0 to 100), Surinam Grass ([11]; 125 g ai/ha): 0 | Plant response rating, Surinam Grass ([11]; 250 g ai/ha, scale 0 to 100): 0 | Plant response rating (0 to 100), Windgrass ([12]; 62 g ai/ha): 0 | Plant response rating (0 to 100), Windgrass ([12]; 125 g ai/ha): 0 | Plant response rating, Windgrass ([12]; 250 g ai/ha, scale 0 to 100): 0 | Plant response rating (0 to 100), Barley ([13]; 31 g ai/ha): 0 | Plant response rating (0 to 100), Barley ([13]; 62 g ai/ha): 0 | Plant response rating (0 to 100), Barley ([13]; 125 g ai/ha): 0 | Plant response rating, Barley ([13]; 250 g ai/ha, scale 0 to 100): 0 | Plant response rating (0 to 100), Cupgrass, Woolly ([14]; 31 g ai/ha): 0 | Plant response rating (0 to 100), Cupgrass, Woolly ([14]; 62 g ai/ha): 0 | Plant response rating (0 to 100), Cupgrass, Woolly ([14]; 125 g ai/ha): 0 | Plant response rating, Cupgrass, Woolly ([14]; 250 g ai/ha, scale 0 to 100): 0 | Plant response rating, Waterhemp_RES2 ([15]; 62 g ai/ha): 80 | Plant response rating, Waterhemp_RES2 ([15]; 125 g ai/ha): 85 | Plant response rating, Waterhemp_RES2 ([15]; 250 g ai/ha): 85
